Experimental data: patent US20220177508A1, “C10-Cyclic Substituted 13-Membered Macrolides and Uses Thereof” (Zikani Therapeutics, Inc., priority 2018, published 2022)
Values after ≈ are worked out from the molar mass of the structure shown.

What was measured:
Type in all cases: cell-based
S. aureus MP-12 = assay: Broth dilution MIC determination (CLSI), S. aureus MP-12; conditions: Staphylococcus aureus, MP12; strain MP-12, broth dilution
E. coli MP-4 = assay: Broth dilution MIC determination (CLSI), E. coli MP-4; conditions: Escherichia coli, MP4; strain MP-4, broth dilution; read-out: MIC E. coli MP-4
K. pneumoniae MP-546 = assay: Broth dilution MIC determination (CLSI), K. pneumoniae MP-546; conditions: Klebsiella pneumoniae, MP546; strain MP-546, broth dilution
P. aeruginosa MP-3 = assay: Broth dilution MIC determination (CLSI), P. aeruginosa MP-3; conditions: Pseudomonas aeruginosa, MP3; strain MP-3, broth dilution
A. baumannii MP-15 = assay: Broth dilution MIC determination (CLSI), A. baumannii MP-15; conditions: Acinetobacter baumannii, MP15; strain MP-15, broth dilution; read-out: MIC A. baumanii MP-15

SMILES | MIC (S. aureus MP-12) [µg/mL] | MIC (E. coli MP-4) [µg/mL] | MIC (K. pneumoniae MP-546) [µg/mL] | MIC (P. aeruginosa MP-3) [µg/mL] | MIC (A. baumannii MP-15) [µg/mL]
CO[C@]1(C)C[C@@H](C)CN(C)[C@H](C2CCCCC2)COC(=O)C(C)(C)C(=O)[C@H](C)[C@H]1O[C@@H]1O[C@H](C)C[C@H](N(C)C)[C@H]1O [Compound 88, (3R,6R,8R,9R,10R)-3-cyclohexyl-9-(((2S,3R,4S,6R)-4-(dimethylamino)-3-hydroxy-6-methyltetrahydro-2H-pyran-2-yl)oxy)-8-methoxy-4,6,8,10,12,12-hexamethyl-1-oxa-4-azacyclotridecane-11,13-dione] | > 32 | > 32 | > 32 | > 32 | > 32
CO[C@]1(C)C[C@@H](C)CN(C)[C@H](C2CCN(S(C)(=O)=O)CC2)COC(=O)C(C)(C)C(=O)[C@H](C)[C@H]1O[C@@H]1O[C@H](C)C[C@H](N(C)C)[C@H]1O [Compound 142, (3R,6R,8R,9R,10R)-9-(((2S,3R,4S,6R)-4-(dimethylamino)-3-hydroxy-6-methyltetrahydro-2H-pyran-2-yl)oxy)-8-methoxy-4,6,8,10,12,12-hexamethyl-3-(1-(methylsulfonyl)piperidin-4-yl)-1-oxa-4-azacyclotridecane-11,13-dione] | 4 to 32 (≈ 6.04 to 48.3 µM) | 4 to 32 (≈ 6.04 to 48.3 µM) | 4 to 32 (≈ 6.04 to 48.3 µM) | > 32 | > 32
CO[C@]1(C)C[C@@H](C)CN(C(=O)OCc2ccccc2)[C@H](C2CCN(C(C)C)CC2)COC(=O)C(C)(C)C(=O)[C@H](C)[C@H]1O[C@@H]1O[C@H](C)C[C@H](N(C)C)[C@H]1O [Compound 118, Benzyl (3R,6R,8R,9R,10R)-9-(((2S,3R,4S,6R)-4-(dimethylamino)-3-hydroxy-6-methyltetrahydro-2H-pyran-2-yl)oxy)-3-(1-isopropylpiperidin-4-yl)-8-methoxy-6,8,10,12,12-pentamethyl-11,13-dioxo-1-oxa-4-azacyclotridecane-4-carboxylate] | > 32 | > 32 | > 32 | > 32 | > 32
CO[C@]1(C)C[C@@H](C)CN(C)[C@H](C2CN(CC3COC3)C2)COC(=O)C(C)(C)C(=O)[C@H](C)[C@H]1O[C@@H]1O[C@H](C)C[C@H](N(C)C)[C@H]1O [Compound 91, (3R,6R,8R,9R,10R)-9-(((2S,3R,4S,6R)-4-(dimethylamino)-3-hydroxy-6-methyltetrahydro-2H-pyran-2-yl)oxy)-8-methoxy-4,6,8,10,12,12-hexamethyl-3-(1-(oxetan-3-ylmethyl)azetidin-3-yl)-1-oxa-4-azacyclotridecane-11,13-dione] | > 32 | < 4 | 4 to 32 (≈ 6.39 to 51.1 µM) | > 32 | > 32
CO[C@]1(C)C[C@@H](C)CN(C)[C@H](c2ccc(B(O)O)cc2)COC(=O)C(C)(C)C(=O)[C@H](C)[C@H]1O[C@@H]1O[C@H](C)C[C@H](N(C)C)[C@H]1O [Compound 133, (4-((3R,6R,8R,9R,10R)-9-(((2S,3R,4S,6R)-4-(Dimethylamino)-3-hydroxy-6-methyltetrahydro-2H-pyran-2-yl)oxy)-8-methoxy-4,6,8,10,12,12-hexamethyl-11,13-dioxo-1-oxa-4-azacyclotridecan-3-yl)phenyl)boronic acid] | > 32 | 4 to 32 (≈ 6.45 to 51.6 µM) | > 32 | > 32 | > 32
CO[C@]1(C)C[C@@H](C)CN(C)[C@H](C2CC3CCC(C2)N3C)COC(=O)C(C)(C)C(=O)[C@H](C)[C@H]1O[C@@H]1O[C@H](C)C[C@H](N(C)C)[C@H]1O (stereo partly drawn) [Compound 129, (3R,6R,8R,9R,10R)-9-(((2S,3R,4S,6R)-4-(dimethylamino)-3-hydroxy-6-methyltetrahydro-2H-pyran-2-yl)oxy)-8-methoxy-4,6,8,10,12,12-hexamethyl-3-(8-methyl-8-azabicyclo[3.2.1]octan-3-yl)-1-oxa-4-azacyclotridecane-11,13-dione] | > 32 | < 4 | 4 to 32 (≈ 6.41 to 51.3 µM) | > 32 | > 32
